{"source": "ChEMBL document CHEMBL5518167", "about": "“Degradation of Polo-like Kinase 1 by the Novel Poly-Arginine N-Degron Pathway PROTAC Regulates Tumor Growth in Nonsmall Cell Lung Cancer” (J Med Chem, 2024)", "key": {"[1]": {"tested_on": "A549", "assay": "Cytotoxicity against human A549 cells incubated for 24 hrs by MTT assay", "format": "functional, cell-based", "conditions": "A549, 24 h"}, "[2]": {"tested_on": "PC-9", "assay": "Cytotoxicity against human PC-9 cells incubated for 24 hrs by MTT assay", "format": "functional, cell-based", "conditions": "PC-9, 24 h"}, "[3]": {"tested_on": "NCI-H1975", "assay": "Cytotoxicity against human NCI-H1975 cells incubated for 24 hrs by MTT assay", "format": "functional, cell-based", "conditions": "NCI-H1975, 24 h"}, "[4]": {"target": "E3 ubiquitin-protein ligase UBR1 (Homo sapiens) (UniProt Q8IWV7)", "sequence (Q8IWV7 whole entry)": "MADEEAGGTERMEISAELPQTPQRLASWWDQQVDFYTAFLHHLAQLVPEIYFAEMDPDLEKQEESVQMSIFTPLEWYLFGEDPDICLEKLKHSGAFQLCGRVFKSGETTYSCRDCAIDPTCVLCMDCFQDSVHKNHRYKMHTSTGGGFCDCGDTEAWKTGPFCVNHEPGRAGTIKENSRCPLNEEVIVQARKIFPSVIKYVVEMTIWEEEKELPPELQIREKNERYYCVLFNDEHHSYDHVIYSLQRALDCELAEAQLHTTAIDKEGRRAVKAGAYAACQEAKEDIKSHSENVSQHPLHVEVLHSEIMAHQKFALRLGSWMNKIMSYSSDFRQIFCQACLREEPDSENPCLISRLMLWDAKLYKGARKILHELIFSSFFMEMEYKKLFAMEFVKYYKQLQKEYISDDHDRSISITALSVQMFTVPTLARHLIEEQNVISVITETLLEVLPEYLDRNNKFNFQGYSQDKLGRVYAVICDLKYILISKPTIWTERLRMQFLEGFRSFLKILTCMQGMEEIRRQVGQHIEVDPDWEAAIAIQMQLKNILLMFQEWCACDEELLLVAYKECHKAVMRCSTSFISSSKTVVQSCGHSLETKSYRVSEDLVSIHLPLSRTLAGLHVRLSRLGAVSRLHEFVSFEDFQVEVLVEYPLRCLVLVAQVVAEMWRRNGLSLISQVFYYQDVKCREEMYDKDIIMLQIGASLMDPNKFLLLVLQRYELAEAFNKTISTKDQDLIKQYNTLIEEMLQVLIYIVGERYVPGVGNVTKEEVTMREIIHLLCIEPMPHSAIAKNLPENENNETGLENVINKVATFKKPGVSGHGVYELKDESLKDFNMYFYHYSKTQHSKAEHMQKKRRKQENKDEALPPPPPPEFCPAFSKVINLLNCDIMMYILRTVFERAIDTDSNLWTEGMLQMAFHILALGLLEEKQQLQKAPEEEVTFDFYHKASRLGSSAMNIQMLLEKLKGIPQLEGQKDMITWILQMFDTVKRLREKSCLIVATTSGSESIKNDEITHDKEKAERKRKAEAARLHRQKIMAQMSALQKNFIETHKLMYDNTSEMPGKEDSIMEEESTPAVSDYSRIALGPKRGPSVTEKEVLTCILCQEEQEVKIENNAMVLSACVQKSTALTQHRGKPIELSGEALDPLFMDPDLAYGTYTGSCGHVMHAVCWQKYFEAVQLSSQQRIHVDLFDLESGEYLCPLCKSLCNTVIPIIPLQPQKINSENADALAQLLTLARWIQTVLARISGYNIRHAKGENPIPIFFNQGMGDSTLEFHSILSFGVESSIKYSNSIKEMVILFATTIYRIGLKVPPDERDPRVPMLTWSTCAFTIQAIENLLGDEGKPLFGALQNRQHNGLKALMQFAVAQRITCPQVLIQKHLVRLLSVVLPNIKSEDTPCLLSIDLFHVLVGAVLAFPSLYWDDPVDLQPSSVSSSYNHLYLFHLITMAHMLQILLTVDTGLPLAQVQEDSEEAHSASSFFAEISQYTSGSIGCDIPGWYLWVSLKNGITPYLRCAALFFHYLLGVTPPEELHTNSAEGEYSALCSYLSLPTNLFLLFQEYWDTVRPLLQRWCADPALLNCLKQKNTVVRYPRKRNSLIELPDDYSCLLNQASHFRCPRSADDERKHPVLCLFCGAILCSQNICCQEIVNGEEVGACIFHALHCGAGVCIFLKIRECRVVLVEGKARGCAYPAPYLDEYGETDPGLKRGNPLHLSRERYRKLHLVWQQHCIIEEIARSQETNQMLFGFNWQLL", "assay": "Binding affinity to UBR1 (unknown origin) expressed in HEK293T cells incubated for 3 hrs by pull-down assay", "format": "cell-based"}, "[5]": {"target": "E3 ubiquitin-protein ligase UBR2 (Homo sapiens) (UniProt Q8IWV8)", "sequence (Q8IWV8 whole entry)": "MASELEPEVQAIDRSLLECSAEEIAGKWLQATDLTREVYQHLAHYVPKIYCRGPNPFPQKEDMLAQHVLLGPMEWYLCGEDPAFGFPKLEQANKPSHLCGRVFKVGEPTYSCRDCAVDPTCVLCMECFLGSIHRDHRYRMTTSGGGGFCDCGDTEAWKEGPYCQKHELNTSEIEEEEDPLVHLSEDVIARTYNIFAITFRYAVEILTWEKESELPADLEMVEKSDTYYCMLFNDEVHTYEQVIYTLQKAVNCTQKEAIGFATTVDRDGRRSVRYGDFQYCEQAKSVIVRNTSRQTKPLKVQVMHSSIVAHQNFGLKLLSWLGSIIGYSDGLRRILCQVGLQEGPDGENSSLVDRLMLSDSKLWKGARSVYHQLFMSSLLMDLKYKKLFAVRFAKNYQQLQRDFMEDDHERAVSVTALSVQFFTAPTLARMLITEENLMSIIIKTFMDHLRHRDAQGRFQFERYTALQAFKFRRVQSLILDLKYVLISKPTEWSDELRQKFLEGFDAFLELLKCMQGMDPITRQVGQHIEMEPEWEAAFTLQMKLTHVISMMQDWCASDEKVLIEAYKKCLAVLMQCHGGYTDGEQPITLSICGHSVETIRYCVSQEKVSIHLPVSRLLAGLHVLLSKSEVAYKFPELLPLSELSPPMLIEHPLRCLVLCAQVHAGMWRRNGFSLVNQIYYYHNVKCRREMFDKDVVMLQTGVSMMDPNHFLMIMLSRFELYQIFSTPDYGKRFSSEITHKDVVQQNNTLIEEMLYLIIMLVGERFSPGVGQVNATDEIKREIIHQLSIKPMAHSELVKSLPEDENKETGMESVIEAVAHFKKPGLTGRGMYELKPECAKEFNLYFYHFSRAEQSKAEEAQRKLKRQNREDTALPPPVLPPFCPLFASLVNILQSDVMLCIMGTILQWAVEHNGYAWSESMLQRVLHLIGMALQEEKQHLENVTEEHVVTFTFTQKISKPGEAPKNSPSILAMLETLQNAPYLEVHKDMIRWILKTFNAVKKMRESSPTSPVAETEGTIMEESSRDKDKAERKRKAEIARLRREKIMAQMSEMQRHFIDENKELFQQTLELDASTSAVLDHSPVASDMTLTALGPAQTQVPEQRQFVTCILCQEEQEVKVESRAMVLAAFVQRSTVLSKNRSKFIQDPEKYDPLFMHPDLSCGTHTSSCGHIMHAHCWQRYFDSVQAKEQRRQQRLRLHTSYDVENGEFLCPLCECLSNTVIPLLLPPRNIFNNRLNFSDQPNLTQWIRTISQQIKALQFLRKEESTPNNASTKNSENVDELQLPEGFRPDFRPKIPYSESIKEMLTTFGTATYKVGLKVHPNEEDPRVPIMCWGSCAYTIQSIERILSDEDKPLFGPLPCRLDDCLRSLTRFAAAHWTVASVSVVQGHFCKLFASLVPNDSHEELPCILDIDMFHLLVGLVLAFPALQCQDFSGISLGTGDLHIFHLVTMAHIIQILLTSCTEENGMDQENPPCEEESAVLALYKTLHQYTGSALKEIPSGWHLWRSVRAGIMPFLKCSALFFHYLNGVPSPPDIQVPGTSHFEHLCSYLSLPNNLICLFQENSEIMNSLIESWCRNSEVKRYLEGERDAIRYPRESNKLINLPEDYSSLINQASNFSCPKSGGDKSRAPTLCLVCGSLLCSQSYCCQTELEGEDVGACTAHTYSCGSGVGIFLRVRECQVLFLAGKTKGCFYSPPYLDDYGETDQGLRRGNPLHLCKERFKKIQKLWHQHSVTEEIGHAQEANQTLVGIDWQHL", "assay": "Binding affinity to UBR2 (unknown origin) expressed in HEK293T cells incubated for 3 hrs by pull-down assay", "format": "cell-based"}, "[6]": {"tested_on": "HeLa", "assay": "Cytotoxicity against human HeLa cells assessed as change in morphology at 18 uM incubated for 24 hrs by phase contrast microscopic assay", "format": "functional, cell-based"}, "[7]": {"tested_on": "A549", "assay": "Cytotoxicity against human A549 cells assessed as change in morphology at 25 uM incubated for 24 hrs by phase contrast microscopic assay", "format": "functional, cell-based"}, "[8]": {"tested_on": "HeLa", "assay": "Induction of cell cycle arrest in human HeLa cells assessed as G2/M phase arrest at 10 uM incubated for 24 hrs by PI staining based flow cytometry analysis", "format": "functional"}, "[9]": {"tested_on": "A549", "assay": "Induction of cell cycle arrest in human A549 cells assessed as G2/M phase arrest at 10 uM incubated for 24 hrs by PI staining based flow cytometry analysis", "format": "functional"}, "[10]": {"tested_on": "NCI-H1975", "assay": "Induction of cell cycle arrest in human NCI-H1975 cells assessed as G2/M phase arrest at 10 uM incubated for 24 hrs by PI staining based flow cytometry analysis", "format": "functional"}, "[11]": {"tested_on": "HeLa", "assay": "Induction of cell cycle arrest in human HeLa cells assessed as delay in S phase progression at 10 uM incubated for 24 hrs by PI staining based flow cytometry analysis", "format": "functional"}, "[12]": {"tested_on": "PC-9", "assay": "Induction of cell cycle arrest in human PC-9 cells assessed as delay in S phase progression at 10 uM incubated for 24 hrs by PI staining based flow cytometry analysis", "format": "functional"}, "[13]": {"tested_on": "HeLa", "assay": "Induction of cell cycle arrest in human HeLa cells assessed as fold increase in S phase population at 10 uM incubated for 24 hrs by PI staining based flow cytometry analysis", "format": "functional"}, "[14]": {"tested_on": "A549", "assay": "Induction of apoptosis in human A549 cells at 25 uM incubated for 24 hrs by fluorescence microscopic analysis", "format": "functional, cell-based"}, "[15]": {"tested_on": "A549", "assay": "Antitumor activity against human A549 cells xenografted in nude mouse assessed as fold reduction in tumor size at 10 mg/kg, iv", "format": "functional"}, "[16]": {"tested_on": "NCI-H1975", "assay": "Antitumor activity against human NCI-H1975 cells harboring L858R/T790M double mutant xenografted in nude mouse assessed as fold reduction in tumor growth at 10 mg/kg, iv administered for every 3 days in presence of 5 mg/kg osimertinib", "format": "functional"}, "[17]": {"assay": "In vivo induction of PLK1 degradation in nude mouse xenografted with human NCI-H1975 cells assessed as reduction in PLK1 protein expression at 10 mg/kg, iv administered for every 3 days in presence of 5 mg/kg osimertinib by Western blotting analysis", "format": "functional", "set-up": "scale not given: the % may be the effect or the level left"}, "[18]": {"assay": "Protac activity at UBR/PLK1 in human HeLa cells assessed as PLK1 degradation incubated for 24 hrs by immunoblotting analysis"}, "[19]": {"tested_on": "UBR/PLK1 (Homo sapiens)", "assay": "Protac activity at UBR/PLK1 in human HeLa cells assessed as PLK1 degradation incubated for 24 hrs by immunoblotting analysis", "conditions": "dose 25-100 µM"}, "[20]": {"assay": "Protac activity at UBR/PLK1 in human PC-9 cells assessed as PLK1 degradation incubated for 24 hrs by immunoblotting analysis"}, "[21]": {"tested_on": "UBR/PLK1 (Homo sapiens)", "assay": "Protac activity at UBR/PLK1 in human PC-9 cells assessed as PLK1 degradation incubated for 24 hrs by immunoblotting analysis", "conditions": "dose 5-25 µM"}, "[22]": {"tested_on": "UBR/PLK1 (Homo sapiens)", "assay": "Protac activity at UBR/PLK1 in human PC-9 cells assessed as PLK1 degradation at 30 uM incubated for 24 hrs by immunoblotting analysis"}, "[23]": {"tested_on": "UBR/PLK1 (Homo sapiens)", "assay": "Protac activity at UBR/PLK1 in human NCI-H1975 cells assessed as PLK1 degradation at 10 uM incubated for 2 to 24 hrs by immunoblotting analysis", "conditions": "time 2-24 hrs"}, "[24]": {"tested_on": "UBR/PLK1 (Homo sapiens)", "assay": "Protac activity at UBR/PLK1 in human HeLa cells assessed as PLK1 degradation at 0.3 to 3 uM preincubated for 24 hrs followed by MG132 addition for 8 hrs by immunoblotting analysis", "conditions": "dose 0.3-3 µM"}, "[25]": {"tested_on": "UBR/PLK1 (Homo sapiens)", "assay": "Protac activity at UBR/PLK1 in human NCI-H1975 cells assessed as PLK1 degradation at 5 to 30 uM preincubated for 24 hrs followed by MG132 addition for 8 hrs by immunoblotting analysis", "conditions": "dose 5-30 µM, time 32.0 hrs"}}, "note": "The source made the active and inactive calls. The rule behind the calls is not given here. Where a SMILES comes first, the peptide text is derived from it. Bridges are numbered along the chain shown (N, C = ends). [ ]: non-standard residue; d: D form. His(π-(CH2)8Ph) = N[C@@H](Cc1cncn1CCCCCCCCc1ccccc1)C(=O)O; pT = C[C@@H](OP(=O)(O)O)[C@H](N)C(=O)O; Ahx = NCCCCCC(=O)O", "data": [{"smiles": "C[C@@H](OP(=O)(O)O)[C@@H]1NC(=O)[C@H](Cc2cncn2CCCCCCCCc2ccccc2)NC(=O)[C@@H](NC(=O)CCCCCNC(=O)[C@H](CCCNC(=N)N)NC(=O)[C@H](CCCNC(=N)N)NC(=O)[C@H](CCCNC(=N)N)NC(=O)[C@H](CCCNC(=N)N)NC(=O)[C@H](CCCNC(=N)N)NC(=O)[C@H](CCCNC(=N)N)NC(=O)[C@H](CCCNC(=N)N)NC(=O)[C@H](CCCNC(=N)N)NC(=O)[C@H](CCCNC(=N)N)NC(=O)[C@H](CCCNC(=N)N)NC(=O)[C@H](CCCNC(=N)N)NC(=O)[C@@H](N)CCCNC(=N)N)CCC(=O)NCCCC[C@@H](C(N)=O)NC1=O", "note": "(H-RRRRRRRRRRRR[Ahx]E[His(π-(CH2)8Ph)][pT]K-NH2; lactam 14-17)", "values": [{"measurement": "IC50", "setting": "[1]", "result": 20.6, "unit": "µM"}, {"measurement": "IC50", "setting": "[2]", "result": 17.1, "unit": "µM"}, {"measurement": "IC50", "setting": "[3]", "result": 24.4, "unit": "µM"}, {"measurement": "Activity", "setting": "[4]", "result": "Active"}, {"measurement": "Activity", "setting": "[5]", "result": "Active"}, {"measurement": "Activity", "setting": "[6]", "result": "Active"}, {"measurement": "Activity", "setting": "[7]", "result": "Active"}, {"measurement": "Activity", "setting": "[8]", "result": 21, "unit": "%"}, {"measurement": "Activity", "setting": "[9]", "result": 10, "unit": "%"}, {"measurement": "Activity", "setting": "[10]", "result": 11, "unit": "%"}, {"measurement": "Activity", "setting": "[11]", "result": "Active"}, {"measurement": "Activity", "setting": "[12]", "result": "Active"}, {"measurement": "Activity", "setting": "[13]", "result": "Active"}, {"measurement": "Activity", "setting": "[14]", "result": "Active"}, {"measurement": "fold change (FC)", "setting": "[15]", "result": 6.3}, {"measurement": "fold change (FC)", "setting": "[16]", "result": "~7"}, {"measurement": "Activity", "setting": "[17]", "result": 75, "unit": "%"}, {"measurement": "DC50", "setting": "[18]", "result": 2.5, "unit": "µM"}, {"measurement": "Activity", "setting": "[19]", "result": "Dose-Dependent Effect"}, {"measurement": "DC50", "setting": "[20]", "result": 12, "unit": "µM"}, {"measurement": "Activity", "setting": "[21]", "result": "Dose-Dependent Effect"}, {"measurement": "Emax", "setting": "[22]", "result": 100, "unit": "%"}, {"measurement": "Activity", "setting": "[23]", "result": "Active"}, {"measurement": "Activity", "setting": "[24]", "result": "inactive"}, {"measurement": "Activity", "setting": "[25]", "result": "inactive"}]}]}
